Test: In-vitro dissolution rate, USP XXII paddle method, aqueous buffer pH 4.5
Format: physicochemical
Source text: In the case of drugs which cannot develop their action in the gastrointestinal zone itself, release from the drug form in the gastrointestinal tract and the subsequent resorption are the necessary condition for a therapeutic effect. Problems arise in this connection with those active substances which, because of their poor solubility or their low dissolution speed, attain so low a concentration in the gastrointestinal tract in the aqueous medium or because of obstructed release from the system of the other adjuvants, that the dissolution of the active substance is the step which determines the rate in connection with the resorption. […] The solubility and release rate are determined by standard methods, e.g. in accordance with the paddle method of USP XXII.
The in-vitro dissolution rates in this and the following examples were determined in accordance with USP XXII, paddle method in an aqueous buffer pH 4.5

Compound: OC(COc1cccc2[nH]ccc12)CN1CCC(COc2ccccc2)CC1 (centres unmarked) [Active substance A, 4-[2-hydroxy-3-[4-(phenoxymethyl)piperidino]-propoxy]-indole]
- In-vitro dissolution rate after 10 minutes: 31%
- In-vitro dissolution rate after 20 minutes: 43%
- In-vitro dissolution rate after 30 minutes: 50%
- In-vitro dissolution rate after 60 minutes: 58%

Compound: COc1ccccc1OCCNCC(O)COc1cccc2[nH]c3ccccc3c12 (centres unmarked) [Active substance B, carvedilol]
- In-vitro dissolution rate after 10 minutes: 36%
- In-vitro dissolution rate after 20 minutes: 46%
- In-vitro dissolution rate after 30 minutes: 49%
- In-vitro dissolution rate after 60 minutes: 56%

From US6852337B2, “Carvedilol-galenics” (Roche Diagnostics GmbH, priority 1998, dated 2005)
